From patent publication US9765297B2, “Stem cell-based culture system for drug development” (THE TRUSTEES OF COLUMBIA UNIVERSITY IN THE CITY OF NEW YORK, priority 2007, dated 2017)
Entries after “also recorded” stand apart in the source; their conditions may differ. Where a SMILES comes first, the peptide text is derived from it. The star is where a group is joined. Cbz = O=C(OCc1ccccc1)*; CH2F = FC*

Columns and labels:
[1] = tested on: motor neurons on mutant SOD1 astrocyte layer; assay: Motor neuron / mutant SOD1 astrocyte co-cultures incubated with CNQX or Fas-Fc (FIG. 11c,d); assay type: cell-based, mouse; conditions: 100 μM CNQX
Description: FIG. 11a-e. Glutamate, Fas ligand and several major cytokines and chemokines are not involved in the toxicity of mutant SOD1 astrocytes to motor neurons. […] (b) 14 d-old-confluent ^NTgAML or ^G93AAML were incubated with 200 μM of glutamate. Then, the extracellular concentration of glutamate was monitored by HPLC at 0, 0.5, 1, 3, 6 and 24 hr. No interaction was found between the timing of glutamate decrease in the medium and the genotypes of the two astrocyte layers (F[2.241]=0.430; P=0.826; ANOVA). […] (e) The relative contents of 19 cytokines/chemokines were screened by array in CMd from G93A and NTg astrocytes. The genotypic differences were highlighted in bold. […]
Results are expressed as mean±standard error of the mean (s.e.m.) for 3-6 independent experiments. […] Each coverslip was counted at ×100 under fluorescent examination in its entirety. To determine the proportion of dying or apoptotic neurons, ≧750 MAP2^+ neurons were counted per culture. Differences between means were analyzed by a two-tailed Student's t-test whereas among means by one- or two-way ANOVA with the different types of mice, treatment doses, or time as the independent factors. […] For morphometry studies, differences were analyzed by Kolmogorov-Smimov test (www.physics.csbsju.edu/stats/KS-test.n.plot_form.html). […]

ESMN plated on G93A AML = assay: Co-culture of embryonic stem cell-derived motor neurons (ESMN) on mutant SOD1 G93A astrocyte monolayers with pharmacological treatment; survival and death counted at 7 d; assay type: cell-based, mouse; conditions: 7 d post-plating, V5 50-200 μM, zVAD-fmk 10-20 μM; for percentages of surviving ESMN: ESMN on G93A AML, vs vehicle; for percentages of ESMN / MAP2+ neurons labeled with EthD (dying cells) / percentages of embryonic stem cell-derived MAP2+/fractin+ neurons (apoptosis): G93A AML co-cultures, vs vehicle (DMSO), added daily
Description: Glial monolayers were prepared from spinal cord from transgenic SOD^G93A, SOD^G37R, SOD^G85R, SOD^WT of newborn pups as described by Silva and collaborators^31. Cell suspensions were plated in glial medium: Dubelco Modified Eagle's medium (DMEM; Invitrogen, Carlsbad, Calif.) containing 10% fetal bovine serum (FBS; Invitrogen), 100 U/mL penicillin and 100 μg/mL streptomycin (penicillin/streptomycin, Invitrogen). After 2 weeks, glial cultures contained 95% of glial acidic fibrillary protein (GFAP)^+ astrocytes, 5% of CD11b^+ microglia, and no neuron or oligodendrocyte as indicated by the lack of respectively MAP2 or 2′-3′-cyclic nucleotide phosphohydrolase immunoreactivity (data not shown). To eliminate residual microglia, 2-week-old flasks were agitated (200 rpm; 6 h) and astrocytes were detached by 0.25% trypsin (Invitrogen) and plated onto coverslips at a density of 20,000 cells/cm^2.
Cells were derived from Hlxb9-GFP1Tmj transgenic mice^13 and differentiated into ESMN as described previously^13. To form EBs, cells were grown for 2 d in 1:1 (v/v) DMEM/Ham's F-12 media (Invitrogen) medium containing B27 supplement (Invitrogen), penicillin/streptomycin and 0.1 mM β-mercaptoethanol (Sigma, Saint Louis, Mo.). They were treated with 1 μM retinoic acid (Sigma) and 400 nM sonic hedgehog agonist (Hh-Ag1.3, Curls Inc., Cambridge, Mass.) for 5 d and dissociated with papain (Worthington, Lakewood, N.J.). Cells were plated at 1,600 eGFP-positive cells/cm^2 in motor neuron medium: Neurobasal medium (Invitrogen) containing 2% horse serum (heat inactivated; Invitrogen), B27 supplement, 0.5 mM glutamine (Invitrogen), 25 μM β-mercaptoethanol, penicillin/streptomycin. To obtain LH2-positive neurons, once EBs were formed they were treated with 0.1 μM retinoic acid and 15 ng/mL bone morphogenetic protein 4 (R&D systems, Minneapolis, Minn.) for 5 d before papain dissociation. Then, 1,500 cells/cm^2 were plated onto astrocyte monolayer in motor neuron medium.
For EthD (Molecular Probes) estimation of death, cells were incubated with 2 μM EthD (diluted in D-PBS; 45 min; RT) as we previously reported^36. For immunocytochemistry and the other cell labelings, cells were processed as we previously described^36. Primary antibodies used were: rabbit polyclonal anti-eGFP (1:2000; Molecular Probes), anti-fractin (1:5000; BD Pharmingen, San Jose, Calif.), GABA (1:2000; Chemicon), anti-Lim2 (1:150; from Dr. Jessell's lab), and anti-HB9 (1:1000 from T M Jessell's lab); goat polyclonal anti-ChAT (1:100; Chemicon, Temecula, Calif.); sheep polyclonal anti-SOD1 (1:500; Calbiochem), rabbit anti-protein gene product 9.5 (PG-P 9.5; 1:2000; Chemicon) and mouse monoclonal anti-MAP-2 (1:1000; Chemicon), anti-GFAP (1:1000; Sigma), anti-Islet 1/2 (1:100; from TM Jessell's lab), anti-LH2 (1:2; from T M Jessell's lab), and anti-SMI-32 for non-phosphorylated neurofilament heavy chain (1:1000, Sternberger monoclonals, Lutherville, Md.). Terminal deoxy-UTP nick-end labeling (Tunel, in situ cell death detection kit, Roche Diagnostic, Indianapolis, Ind.) were performed following the manufacturer's recommendations.
zVAD-fmk and V5 (Sigma) were dissolved in DMSO and add to co-cultures to final concentrations ranging from 10-20 μM for the former and 50-200 μM for the latter. Fresh drugs were added daily. Cell survival and death were evaluated at 7 d by counting eGFP^+/HB9^+ neurons, and EthD- and fractin-labeled cells as described below.
Results are expressed as mean±standard error of the mean (s.e.m.) for 3-6 independent experiments. Each experiment corresponds ≧3 transgenic and non-transgenic co-cultures from the same litter and 3 coverslips per time point and per condition. Each coverslip was counted at ×100 under fluorescent examination in its entirety. To determine the proportion of dying or apoptotic neurons, ≧750 MAP2^+ neurons were counted per culture. […]

| Compound | mutant SOD1 astrocyte-mediated motor neuron death [1] | percentages of surviving ESMN (ESMN plated on G93A AML) | percentages of surviving ESMN (ESMN plated on G93A AML; listed as zVAD.fmk) | percentages of ESMN / MAP2+ neurons labeled with EthD (dying cells) (ESMN plated on G93A AML) | percentages of embryonic stem cell-derived MAP2+/fractin+ neurons (apoptosis) (ESMN plated on G93A AML) |
| --- | --- | --- | --- | --- | --- |
| N#Cc1cc2[nH]c(=O)c(=O)[nH]c2cc1[N+](=O)[O-] [CNQX] | did not influence |  |  |  |  |
| COC(=O)C[C@H](NC(=O)[C@H](C)NC(=O)[C@@H](NC(=O)OCc1ccccc1)C(C)C)C(=O)CF [zVAD-fmk] (Cbz-Val-Ala-Asp(OMe)-CH2F) |  | failed to improve | had no effect | had no effect | decreased |
| VPMLK [V5] |  | augmented; also recorded: increases |  | diminished; also recorded: decreases | reduced specifically; also recorded: decreases; also recorded: inhibited apoptosis |
